Measurements taken from patent US8575158B2, “1-phenyl-substituted heterocyclyl derivatives and their use as prostaglandin D2 receptor modulators” (Actelion Pharmaceuticals Ltd., priority 2010, dated 2013).
pIC50: −log10 of the molar value.

Target: T1, hCRTH2 receptor (Homo sapiens, UniProt Q9Y5Y4)
T1 construct: expressed in transfected cells; host or cells: HEK293
T1 sequence (Q9Y5Y4 1-395): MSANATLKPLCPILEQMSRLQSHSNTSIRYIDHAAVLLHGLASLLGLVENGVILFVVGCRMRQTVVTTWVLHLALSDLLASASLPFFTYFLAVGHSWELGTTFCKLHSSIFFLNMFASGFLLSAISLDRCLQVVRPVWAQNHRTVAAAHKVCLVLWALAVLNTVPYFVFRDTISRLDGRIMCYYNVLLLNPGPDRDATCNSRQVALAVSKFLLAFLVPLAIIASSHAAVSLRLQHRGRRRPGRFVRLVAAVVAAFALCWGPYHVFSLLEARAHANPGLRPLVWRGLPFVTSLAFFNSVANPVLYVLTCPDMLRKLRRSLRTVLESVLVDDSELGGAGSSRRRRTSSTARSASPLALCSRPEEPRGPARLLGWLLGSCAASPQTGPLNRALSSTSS
Test: Radioligand displacement assay (3H-PGD2) on hCRTH2 receptor membranes
Format: binding
Conditions: antagonistic activity

[1] = 3H-PGD2 displacement on HEK293-hCRTH2 membrane fragments
[2] = 3H-PGD2 radioligand displacement, HEK293-hCRTH2 membranes

O=C(O)COc1ccc(Cl)cc1C1c2ccccc2CCN1C(=O)Cn1cc2ccccc2n1 (racemic) [Example 80, (±)-{4-Chloro-2-[2-(2-indazol-2-yl-acetyl)-1,2,3,4-tetrahydro-isoquinolin-1-yl]-phenoxy}-acetic acid]
pIC50 [1]: 7.33

Cc1cc(COC(=O)N2CCc3ccccc3C2c2cc(Cl)ccc2OCC(=O)O)nn1C (racemic) [Example 271]
pIC50 [1]: 7.92

O=C(O)COc1ccc(Cl)cc1C1c2ccc(F)c(F)c2CCN1C(=O)OCc1ccccc1 (racemic) [Example 15, (±)-1-(2-Carboxymethoxy-5-chloro-phenyl)-5,6-difluoro-3,4-dihydro-1H-isoquinoline-2-carboxylic acid benzyl ester]
pIC50 [1]: 8.00

Cc1ncccc1OCC(=O)N1CCc2ccccc2C1c1cc(Cl)ccc1OCC(=O)O (racemic) [Example 469]
pIC50 [2]: 6.88

COc1ccc2c(ccn2CCC(=O)N2CCc3ccccc3C2c2cc(Cl)ccc2OCC(=O)O)c1 (racemic) [Example 459]
pIC50 [2]: 6.80

O=C(O)COc1ccc(Cl)cc1C1c2ccc(F)cc2CCN1C(=O)[C@@H]1C[C@H]1c1ccccc1C(F)(F)F (mixture of isomers) [Example 429]
pIC50 [2]: 8.66

O=C(O)COc1ccc(Cl)cc1C1c2ccccc2CCN1C(=O)[C@@H]1C[C@H]1c1cccc(Cl)c1 (single isomer, unassigned; diastereoisomer 1) [Example 151, (±)-(4-Chloro-2-{2-[(trans)-2-(3-chloro-phenyl)-cyclopropanecarbonyl]-1,2,3,4-tetrahydro-isoquinolin-1-yl}-phenoxy)-acetic acid (diastereoisomer 1)]
pIC50 [1]: 6.58

O=C(O)COc1ccc(Cl)cc1C1c2ccccc2CCN1C(=O)CNc1ccccc1 (racemic) [Example 443]
pIC50 [2]: 6.07

O=C(O)COc1ccc(Cl)cc1[C@@H]1c2cccc(F)c2CCN1C(=O)OCc1cccc(F)c1 [Example 358, (S)-1-(2-Carboxymethoxy-5-chloro-phenyl)-5-fluoro-3,4-dihydro-1H-isoquinoline-2-carboxylic acid 3-fluoro-benzyl ester]
pIC50 [2]: 8.55

O=C(O)COc1ccc(Cl)cc1C1c2ccccc2CN1C(=O)NCc1ccc(F)cc1 (racemic) [Example 554]
pIC50 [2]: 7.59

O=C(O)COc1ccc(Cl)cc1[C@@H]1c2ccccc2CCN1C(=O)OCc1ccccc1Cl [Example 174, (S)-1-(2-Carboxymethoxy-5-chloro-phenyl)-3,4-dihydro-1H-isoquinoline-2-carboxylic acid 2-chloro-benzyl ester]
pIC50 [1]: 8.24

O=C(O)COc1ccc(F)cc1C1c2cc(-c3cncnc3)ccc2CCN1C(=O)OCc1ccccc1 (racemic) [Example 498]
pIC50 [2]: 6.42

Cc1csc(=O)n1CCC(=O)N1CCc2ccccc2C1c1cc(Cl)ccc1OCC(=O)O (racemic) [Example 452]
pIC50 [2]: 6.30

O=C(O)COc1ccc(Cl)cc1C1c2ccccc2CCN1C(=O)Cc1c[nH]c2ccc(Cl)cc12 (racemic) [Example 96, (±)-(4-Chloro-2-{2-[2-(5-chloro-1H-indol-3-yl)-acetyl]-1,2,3,4-tetrahydro-isoquinolin-1-yl}-phenoxy)-acetic acid]
pIC50 [1]: 6.76

COc1cccc(CCC(=O)N2CCc3ccccc3C2c2cc(F)ccc2OCC(=O)O)c1 (racemic) [Example 129, (±)-(4-Fluoro-2-{2-[3-(3-methoxy-phenyl)-propionyl]-1,2,3,4-tetrahydro-isoquinolin-1-yl}-phenoxy)-acetic acid]
pIC50 [1]: 6.55

CC(C)(CC(=O)N1CCc2ccccc2C1c1cc(F)ccc1OCC(=O)O)c1ccccc1 (racemic) [Example 46, (±)-{4-Fluoro-2-[2-(3-methyl-3-phenyl-butyryl)-1,2,3,4-tetrahydro-isoquinolin-1-yl]-phenoxy}-acetic acid]
pIC50 [1]: 6.04

O=C(O)COc1ccc(Cl)cc1C1c2ccccc2CCN1C(=O)CCc1c[nH]c2ccccc12 (racemic) [Example 463]
pIC50 [2]: 7.92

COc1cccc(COC(=O)N2CCc3ccccc3C2c2cc(Cl)ccc2OCC(=O)O)c1 (racemic) [Example 237]
pIC50 [1]: 8.40

Cc1cc(C)n(CCOC(=O)N2CCc3ccccc3[C@H]2c2cc(Cl)ccc2OCC(=O)O)n1 [Example 291, (S)-1-(2-Carboxymethoxy-5-chloro-phenyl)-3,4-dihydro-1H-isoquinoline-2-carboxylic acid 2-(3,5-dimethyl-pyrazol-1-yl)-ethyl ester]
pIC50 [2]: 8.05

Cc1conc1COC(=O)N1CCc2cc(F)ccc2[C@H]1c1cc(Cl)ccc1OCC(=O)O [Example 331, (S)-1-(2-Carboxymethoxy-5-chloro-phenyl)-6-fluoro-3,4-dihydro-1H-isoquinoline-2-carboxylic acid 4-methyl-isoxazol-3-ylmethyl ester]
pIC50 [2]: 8.14

O=C(O)COc1ccc(Cl)cc1C1c2ccccc2CCN1C(=O)OCc1cccc(Cl)c1 (racemic) [Example 364]
pIC50 [2]: 7.78

C[C@@H]1C[C@H]1C(=O)N1CCc2ccccc2[C@H]1c1cc(Cl)ccc1OCC(=O)O [Example 462]
pIC50 [2]: 7.09

Cc1cc(C)n(COC(=O)N2CCc3ccccc3C2c2cc(Cl)ccc2OCC(=O)O)n1 (racemic) [Example 269]
pIC50 [1]: 8.31

COc1cccc(CCCC(=O)N2CCc3ccccc3C2c2cc(Cl)ccc2OCC(=O)O)c1 (racemic) [Example 114, (±)-(4-Chloro-2-{2-[4-(3-methoxy-phenyl)-butyryl]-1,2,3,4-tetrahydro-isoquinolin-1-yl}-phenoxy)-acetic acid]
pIC50 [1]: 7.46

O=C(O)COc1ccc(Cl)cc1C1c2cccc(F)c2CCN1C(=O)CCCc1ccccc1 (racemic) [Example 121, (±)-{4-Chloro-2-[5-fluoro-2-(4-phenyl-butyryl)-1,2,3,4-tetrahydro-isoquinolin-1-yl]-phenoxy}-acetic acid]
pIC50 [1]: 7.28

O=C(O)COc1ccc(Cl)cc1C1c2ccccc2CCN1C(=O)COc1cccnc1 (racemic) [Example 416]
pIC50 [2]: 6.67

COc1cccc(OC)c1COC(=O)N1CCc2ccccc2C1c1cc(Cl)ccc1OCC(=O)O (racemic) [Example 244]
pIC50 [1]: 8.12

O=C(OCc1ccccc1)N1CCc2ccccc2C1c1cc(Cl)ccc1OCc1cc(O)no1 (racemic) [Example 573, (±)-1-[5-Chloro-2-(3-hydroxy-isoxazol-5-ylmethoxy)-phenyl]-3,4-dihydro-1H-isoquinoline-2-carboxylic acid benzyl ester]
pIC50 (radioligand displacement (3H-PGD2), hCRTH2 receptor membranes): 7.82

NC(=O)c1ccc(OCC(=O)O)c(C2c3ccccc3CCN2C(=O)OCc2ccccc2)c1 (racemic) [Example 213, (±)-1-(5-Carbamoyl-2-carboxymethoxy-phenyl)-3,4-dihydro-1H-isoquinoline-2-carboxylic acid benzyl ester]
pIC50 [1]: 6.46

O=C(O)COc1ccc(Cl)cc1C1c2ccccc2CCN1C(=O)CCn1ccc2ccncc21 (racemic) [Example 372]
pIC50 [2]: 6.22

O=C(O)COc1ccc(Cl)cc1C1c2ccccc2CCN1C(=O)CCc1cnnn1-c1ccccc1 (racemic) [Example 161]
pIC50 [1]: 6.94

O=C(O)COc1ccc(Cl)cc1C1c2ccccc2CCN1C(=O)CCc1ccccc1C(F)(F)F (racemic) [Example 90, (±)-(4-Chloro-2-{2-[3-(2-trifluoromethyl-phenyl)-propionyl]-1,2,3,4-tetrahydro-isoquinolin-1-yl}-phenoxy)-acetic acid]
pIC50 [1]: 7.34

O=C(O)COc1ccc(Cl)cc1C1c2ccccc2CN1C(=O)CCn1ncc2cccc(Cl)c21 (single isomer, unassigned) [Example 536]
pIC50 [2]: 6.96

CCO[C@@H]1C[C@H]1C(=O)N1CCc2ccccc2[C@H]1c1cc(Cl)ccc1OCC(=O)O [Example 461]
pIC50 [2]: 6.73

O=C(O)COc1ccc(F)cc1C1c2ccccc2CCN1C(=O)COc1ccccc1 (racemic) [Example 125, (±)-{4-Fluoro-2-[2-(2-phenoxy-acetyl)-1,2,3,4-tetrahydro-isoquinolin-1-yl]-phenoxy}-acetic acid]
pIC50 [1]: 6.76

Cc1nc(C)c(C2CC2C(=O)N2CCc3ccccc3C2c2cc(Cl)ccc2OCC(=O)O)s1 (racemic) [Example 467, (±)-(4-Chloro-2-{2-[2-(2,4-dimethyl-thiazol-5-yl)-cyclopropanecarbonyl]-1,2,3,4-tetrahydro-isoquinolin-1-yl}-phenoxy)-acetic acid]
pIC50 [2]: 6.40

COc1ccc2[nH]cc(CCC(=O)N3CCc4ccccc4C3c3cc(Cl)ccc3OCC(=O)O)c2c1 (racemic) [Example 74, (±)-(4-Chloro-2-{2-[3-(5-methoxy-1H-indol-3-yl)-propionyl]-1,2,3,4-tetrahydro-isoquinolin-1-yl}-phenoxy)-acetic acid]
pIC50 [1]: 8.85

O=C(O)COc1ccc(F)cc1C1c2ccc(F)c(Br)c2CCN1C(=O)OCc1ccccc1 (racemic) [Example 40, (±)-5-Bromo-1-(2-carboxymethoxy-5-fluoro-phenyl)-6-fluoro-3,4-dihydro-1H-isoquinoline-2-carboxylic acid benzyl ester]
pIC50 [1]: 7.64

CCS(=O)(=O)c1cccc2c1CCN(C(=O)OCc1ccccc1)C2c1cc(F)ccc1OCC(=O)O (racemic) [Example 186]
pIC50 [1]: 6.51

O=C(O)COc1ccc(Cl)cc1C1c2ccccc2CCN1C(=O)COc1cccnc1Cl (racemic) [Example 471]
pIC50 [2]: 7.06

O=C(O)COc1ccc(Cl)cc1C1c2cccc(F)c2CN1C(=O)OCc1ccccc1 (racemic) [Example 501]
pIC50 [2]: 8.09

N#Cc1ccc(OCC(=O)O)c([C@@H]2c3cccc(F)c3CCN2C(=O)OCc2ccccc2)c1 [Example 32, (S)-1-(2-Carboxymethoxy-5-cyano-phenyl)-5-fluoro-3,4-dihydro-1H-isoquinoline-2-carboxylic acid benzyl ester]
pIC50 [1]: 8.70
